Biological target: ROCK2 (Homo sapiens (Human), UniProt O75116)
Assay: ROCK assay (peptide substrate phosphorylation, LABCHIP 3000 Reader)
Format: biochemical
Conditions: 5 μM ATP, 1.5 μM peptide substrate
Experimental: Compounds were dissolved in DMSO so that the final concentration of DMSO was <2%, and the reaction was initiated with Rho kinase variants. After incubation, the reaction was terminated by the addition of EDTA and the phosphorylated and non-phosphorylated peptides separated using a LABCHIP® 3000 Reader (Caliper Life Sciences). […] Compounds were tested in dose-response format, and the inhibition of kinase activity was calculated at each concentration of compound.

Sequence of ROCK2 (O75116 whole entry, species assumed): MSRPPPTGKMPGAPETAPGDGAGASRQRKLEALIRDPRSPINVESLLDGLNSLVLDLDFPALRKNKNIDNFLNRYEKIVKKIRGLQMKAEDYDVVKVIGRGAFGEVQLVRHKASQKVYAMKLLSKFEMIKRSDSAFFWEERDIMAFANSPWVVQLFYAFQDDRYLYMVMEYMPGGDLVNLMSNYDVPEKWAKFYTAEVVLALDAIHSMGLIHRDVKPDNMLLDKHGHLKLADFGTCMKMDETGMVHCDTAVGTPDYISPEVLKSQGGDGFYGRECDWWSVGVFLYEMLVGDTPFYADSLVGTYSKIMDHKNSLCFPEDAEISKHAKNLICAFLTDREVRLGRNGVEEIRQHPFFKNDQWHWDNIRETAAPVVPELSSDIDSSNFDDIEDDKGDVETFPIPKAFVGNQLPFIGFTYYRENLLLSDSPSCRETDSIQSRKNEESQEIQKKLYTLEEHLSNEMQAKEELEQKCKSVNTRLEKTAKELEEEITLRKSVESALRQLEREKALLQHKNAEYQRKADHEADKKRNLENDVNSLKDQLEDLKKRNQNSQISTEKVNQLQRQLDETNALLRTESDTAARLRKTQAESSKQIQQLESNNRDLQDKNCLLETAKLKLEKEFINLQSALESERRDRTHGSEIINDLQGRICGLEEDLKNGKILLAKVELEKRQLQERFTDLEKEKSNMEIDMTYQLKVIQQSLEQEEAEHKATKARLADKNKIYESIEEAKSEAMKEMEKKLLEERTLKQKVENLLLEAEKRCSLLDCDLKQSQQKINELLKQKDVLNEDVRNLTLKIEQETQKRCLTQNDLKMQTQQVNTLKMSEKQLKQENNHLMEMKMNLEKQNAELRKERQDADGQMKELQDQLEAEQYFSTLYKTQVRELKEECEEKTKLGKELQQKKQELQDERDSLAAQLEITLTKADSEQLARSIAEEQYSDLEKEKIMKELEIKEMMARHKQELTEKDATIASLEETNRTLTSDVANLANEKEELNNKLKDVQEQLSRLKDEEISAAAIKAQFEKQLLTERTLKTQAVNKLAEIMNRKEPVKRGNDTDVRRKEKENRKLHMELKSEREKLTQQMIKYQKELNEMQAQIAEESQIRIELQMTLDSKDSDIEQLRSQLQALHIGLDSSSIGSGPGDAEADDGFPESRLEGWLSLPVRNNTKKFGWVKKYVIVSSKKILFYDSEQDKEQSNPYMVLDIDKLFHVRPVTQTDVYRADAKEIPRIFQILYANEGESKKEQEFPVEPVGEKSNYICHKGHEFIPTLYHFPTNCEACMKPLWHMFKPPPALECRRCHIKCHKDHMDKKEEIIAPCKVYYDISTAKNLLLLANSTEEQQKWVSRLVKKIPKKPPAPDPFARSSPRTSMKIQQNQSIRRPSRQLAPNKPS

Structure (SMILES): COc1cc(C(=O)N[C@@H]2CNC[C@H]2c2ccccc2)ccc1-c1cn[nH]c1 (racemic) [Example 70, trans-(±)-3-Methoxy-N-(4-phenylpyrrolidin-3-yl)-4-(1H-pyrazol-4-yl)benzamide]
- IC50: 1.28 nM

Structure (SMILES): COc1cc(C(=O)N2CCC(c3ccccc3)C2)ccc1-c1cn[nH]c1 (centres unmarked) [Example 2, 4-[2-methoxy-4-(3-phenyl-pyrrolidine-1-carbonyl)phenyl]-1H-pyrazole]
- IC50: 355 nM

Structure (SMILES): COc1cc(C(=O)N2CCC[C@H]2CO)ccc1-c1cn[nH]c1 [Example 3, [(2S)-1-[3-methoxy-4-(1H-pyrazol-4-yl)benzoyl]pyrrolidin-2-yl]methanol]
- IC50: 1340 nM

Structure (SMILES): COc1cccc(C2CCCN2C(=O)c2ccc(-c3cn[nH]c3)c(OC)c2)c1 (centres unmarked) [Example 4, 4-{2-methoxy-4-[2-(3-methoxyphenyl)pyrrolidine-1-carbonyl]phenyl}-1H-pyrazole]
- IC50: 31.8 nM

Structure (SMILES): COc1cc(C(=O)NC2CCc3ccccc32)ccc1-c1cn[nH]c1 (centres unmarked) [Example 5, N-(2,3-dihydro-1H-inden-1-yl)-3-methoxy-4-(1H-pyrazol-4-yl)benzamide]
- IC50: 32.2 nM

Structure (SMILES): COc1cc(C(=O)N2CCCC2c2ccccc2OC)ccc1-c1cn[nH]c1 (centres unmarked) [Example 6, 4-{2-methoxy-4-[2-(2-methoxyphenyl)pyrrolidine-1-carbonyl]phenyl}-1H-pyrazole]
- IC50: 511 nM

Structure (SMILES): COc1cc(C(=O)N2CCCC(c3ccccc3)C2)ccc1-c1cn[nH]c1 (centres unmarked) [Example 7, 1-[3-methoxy-4-(1H-pyrazol-4-yl)benzoyl]-3-phenylpiperidine]
- IC50: 1430 nM

Structure (SMILES): COc1cc(C(=O)N2CCCCC2c2ccccc2F)ccc1-c1cn[nH]c1 (centres unmarked) [Example 8, 2-(2-fluorophenyl)-1-[3-methoxy-4-(1H-pyrazol-4-yl)benzoyl] piperidine]
- IC50: 85.8 nM

Structure (SMILES): COc1cccc(C2CCCCN2C(=O)c2ccc(-c3cn[nH]c3)c(OC)c2)c1 (centres unmarked) [Example 9, 1-[3-methoxy-4-(1H-pyrazol-4-yl)benzoyl]-2-(3-methoxy-phenyl) piperidine]
- IC50: 673 nM

Structure (SMILES): COc1cc(C(=O)N2CCCC2c2ccc(Cl)cc2)ccc1-c1cn[nH]c1 (centres unmarked) [Example 10, 4-{4-[2-(4-chlorophenyl)pyrrolidine-1-carbonyl]-2-methoxyphenyl}-1H-pyrazole]
- IC50: 114 nM

Structure (SMILES): COc1cccc(C2CCCN2C(=O)c2ccc(-c3cn[nH]c3)c(OC)c2)c1 (centres unmarked) [Example 11, 4-{2-methoxy-4-[2-(3-methoxyphenyl)pyrrolidine-1-carbonyl]phenyl}-1H-pyrazole]
- IC50: 1630 nM

Structure (SMILES): COc1cccc(C2CCCN2C(=O)c2ccc(-c3cn[nH]c3)c(OC)c2)c1 (centres unmarked) [Example 12, 4-{2-methoxy-4-[2-(3-methoxyphenyl)pyrrolidine-1-carbonyl]phenyl}-1H-pyrazole]
- IC50: 12.6 nM

Structure (SMILES): COc1cc(C(=O)N2CCc3ccccc32)ccc1-c1cn[nH]c1 [Example 13, 1-[3-methoxy-4-(1H-pyrazol-4-yl)benzoyl]-2,3-dihydro-1H-indole]
- IC50: 800 nM

Structure (SMILES): COc1cc(C(=O)N2CCCC2Cc2ccccc2)ccc1-c1cn[nH]c1 (centres unmarked) [Example 14, 4-[4(2-benzyl-pyrrolidine-1-carbonyl)-2-methoxy-phenyl]-1H-pyrazole]
- IC50: 183 nM

Structure (SMILES): COc1cc(C(=O)N2CCCC2c2cccc(Br)c2)ccc1-c1cn[nH]c1 (centres unmarked) [Example 15, 4-{4-[2-(3-bromophenyl)pyrrolidine-1-carbonyl]-2-methoxyphenyl}-1H-pyrazole]
- IC50: 31 nM

Structure (SMILES): COc1cc(C(=O)N2CCCC2c2cccc(S(N)(=O)=O)c2)ccc1-c1cn[nH]c1 (centres unmarked) [Example 16, 3-{1-[3-methoxy-4-(1H-pyrazol-4-yl)benzoyl]pyrrolidin-2-yl}benzene-1-sulfonamide]
- IC50: 3.57 nM

Structure (SMILES): COc1cc(C(=O)N2CCCC2c2cccc(S(N)(=O)=O)c2)ccc1-c1cn[nH]c1 (centres unmarked) [Example 17, 3-{1-[3-methoxy-4-(1H-pyrazol-4-yl)benzoyl]pyrrolidin-2-yl}benzene-1-sulfonamide]
- IC50: 1280 nM

Structure (SMILES): COc1cc(C(=O)N2CCCC2c2cccc(S(N)(=O)=O)c2)ccc1-c1cn[nH]c1 (centres unmarked) [Example 18, 3-{1-[3-methoxy-4-(1H-pyrazol-4-yl)benzoyl]pyrrolidin-2-yl} benzene-1-sulfonamide]
- IC50: 2.79 nM

Structure (SMILES): COc1cc(C(=O)N2CCCC2c2ccc(F)cc2)ccc1-c1cn[nH]c1 (centres unmarked) [Example 19, 4-{4-[2-(4-fluorophenyl)pyrrolidine-1-carbonyl]-2-methoxyphenyl}-1H-pyrazole]
- IC50: 41.4 nM

Structure (SMILES): COc1cc(C(=O)N2CCCC2c2ccccc2F)ccc1-c1cn[nH]c1 (centres unmarked) [Example 20, 4-{4-[2-(2-fluorophenyl)pyrrolidine-1-carbonyl]-2-methoxyphenyl}-1H-pyrazole]
- IC50: 14.7 nM

Structure (SMILES): COc1cc(C(=O)N2CCCC2c2cccc(O)c2)ccc1-c1cn[nH]c1 (centres unmarked) [Example 21, 3-{1-[3-methoxy-4-(1H-pyrazol-4-yl)benzoyl]pyrrolidin-2-yl}phenol]
- IC50: 2.74 nM

Structure (SMILES): COc1cc(C(=O)N2CCCC2c2ccc(C(F)(F)F)cc2)ccc1-c1cn[nH]c1 (centres unmarked) [Example 22, 4-(2-methoxy-4-{2-[4-(trifluoromethyl)phenyl]pyrrolidine-1-carbonyl}phenyl)-1H-pyrazole]
- IC50: 125 nM

Structure (SMILES): COc1cc(C(=O)N2CCCC2c2ccc(C)cc2)ccc1-c1cn[nH]c1 (centres unmarked) [Example 23, 4-{2-methoxy-4-[2-(4-methyl-phenyl)pyrrolidine-1-carbonyl]phenyl}-1H-pyrazole]
- IC50: 215 nM

Structure (SMILES): COc1cc(C(=O)N2CCC[C@@H]2C(=O)OC(C)(C)C)ccc1-c1cn[nH]c1 [Example 24, tert-butyl (2R)-1-[3-methoxy-4-(1H-pyrazol-4-yl)benzoyl] pyrrolidine-2-carboxylate]
- IC50: 1100 nM

Structure (SMILES): COc1ccc(C2CCCN2C(=O)c2ccc(-c3cn[nH]c3)c(OC)c2)cc1 (centres unmarked) [Example 25, 4-{2-methoxy-4-[2-(4-methoxyphenyl)pyrrolidine-1-carbonyl]phenyl}-1H-pyrazole]
- IC50: 331 nM

Structure (SMILES): COc1cc(C(=O)N2CCCC2c2ccccc2)ccc1-c1cn[nH]c1 (centres unmarked) [Example 26, 4-[2-methoxy-4-(2-phenyl-pyrrolidine-1-carbonyl)phenyl]-1H-pyrazole]
- IC50: 50.5 nM

Structure (SMILES): COc1cc(C(=O)N2CCCC2c2cccc(C)c2)ccc1-c1cn[nH]c1 (centres unmarked) [Example 27, 4-{2-methoxy-4-[2-(3-methyl-phenyl)pyrrolidine-1-carbonyl]phenyl}-1H-pyrazole]
- IC50: 61.4 nM

Structure (SMILES): COc1cc(C(=O)N2CCCC2c2ccccc2Cl)ccc1-c1cn[nH]c1 (centres unmarked) [Example 28, 4-{4-[2-(2-chlorophenyl)pyrrolidine-1-carbonyl]-2-methoxyphenyl}-1H-pyrazole]
- IC50: 15.8 nM

Structure (SMILES): COc1cc(C(=O)N2CCCC2c2ccc3ccccc3c2)ccc1-c1cn[nH]c1 (centres unmarked) [Example 29, 4-{2-methoxy-4-[2-(naphthalen-2-yl)pyrrolidine-1-carbonyl]phenyl}-1H-pyrazole]
- IC50: 68.3 nM

Structure (SMILES): COc1cc(C(=O)N2CCCC2c2ccc3c(c2)OCO3)ccc1-c1cn[nH]c1 (centres unmarked) [Example 30, 4-{4-[2-(2H-1,3-benzodioxol-5-yl)pyrrolidine-1-carbonyl]-2-methoxyphenyl}-1H-pyrazole]
- IC50: 75.3 nM

Structure (SMILES): COc1cc(C(=O)N2CCC[C@@H]2c2cccc(S(C)(=O)=O)c2)ccc1-c1cn[nH]c1 [Example 31, 4-{4-[(2R)-2-(3-Methanesulfonylphenyl)pyrrolidine-1-carbonyl]-2-methoxyphenyl}-1H-pyrazole]
- IC50: 11.6 nM

Structure (SMILES): COC(=O)c1cccc([C@H]2CCCN2C(=O)c2ccc(-c3cn[nH]c3)c(OC)c2)c1 [Example 32, Methyl 3-[(2R)-1-[3-methoxy-4-(1H-pyrazol-4-yl)benzoyl]pyrrolidin-2-yl]benzoate]
- IC50: 5.83 nM

Structure (SMILES): CCNC(=O)c1cccc(C2CCCN2C(=O)c2ccc(-c3cn[nH]c3)c(OC)c2)c1 (centres unmarked) [Example 35, N-Ethyl-3-(1-(3-methoxy-4-(1H-pyrazol-4-yl)benzoyl)pyrrolidin-2-yl)benzamide]
- IC50: 4.89 nM

Structure (SMILES): COc1cc(C(=O)N2CCC[C@@H]2c2cccc(C(=O)NCC(C)(C)O)c2)ccc1-c1cn[nH]c1 [Example 39, N-(2-hydroxy-2-methylpropyl)-3-[(2R)-1-[3-methoxy-4-(1H-pyrazol-4-yl)benzoyl]pyrrolidin-2-yl]benzamide]
- IC50: 4.52 nM

Structure (SMILES): COc1cc(C(=O)N2CCC[C@@H]2c2cccc(C(=O)N(C)C)c2)ccc1-c1cn[nH]c1 [Example 40, 3-[(2R)-1-[3-methoxy-4-(1H-pyrazol-4-yl)benzoyl]pyrrolidin-2-yl]-N,N-dimethylbenzamide]
- IC50: 725 nM

Structure (SMILES): COc1cc(C(=O)N2CCC[C@@H]2c2cccc(C(=O)NC3CCS(=O)(=O)C3)c2)ccc1-c1cn[nH]c1 (stereo partly drawn) [Example 41, N-(1,1-dioxo-1λ^6-thiolan-3-yl)-3-[(2R)-1-[3-methoxy-4-(1H-pyrazol-4-yl)benzoyl]pyrrolidin-2-yl]benzamide]
- IC50: 5.53 nM

Structure (SMILES): COc1cc(C(=O)N2CCC[C@@H]2c2cccc(C(=O)NC3CC3)c2)ccc1-c1cn[nH]c1 [Example 42, N-cyclopropyl-3-[(2R)-1-[3-methoxy-4-(1H-pyrazol-4-yl)benzoyl]pyrrolidin-2-yl]benzamide]
- IC50: 4.59 nM

Structure (SMILES): COC(=O)c1cccc([C@H]2CC(OC(C)=O)CN2C(=O)c2ccc(-c3cn[nH]c3)c(OC)c2)c1 (stereo partly drawn) [Example 43, Methyl 3-[(2R)-4-(acetyloxy)-1-[3-methoxy-4-(1H-pyrazol-4-yl)benzoyl]pyrrolidin-2-yl]benzoate]
- IC50: 54.4 nM

Structure (SMILES): COc1cc(C(=O)N2CC(O)C[C@@H]2c2cccc(C(=O)O)c2)ccc1-c1cn[nH]c1 (stereo partly drawn) [Example 44, 3-[(2R)-4-Hydroxy-1-[3-methoxy-4-(1H-pyrazol-4-yl)benzoyl]pyrrolidin-2-yl]benzoic acid]
- IC50: 49.7 nM

Structure (SMILES): CNC(=O)c1cccc([C@H]2CC(O)CN2C(=O)c2ccc(-c3cn[nH]c3)c(OC)c2)c1 (stereo partly drawn) [Example 46, 3-[(2R)-4-hydroxy-1-[3-methoxy-4-(1H-pyrazol-4-yl)benzoyl]pyrrolidin-2-yl]-N-methylbenzamide]
- IC50: 18.2 nM

Structure (SMILES): COc1cc(C(=O)N2CC(O)C[C@@H]2c2cccc(C(=O)NCC(C)(C)O)c2)ccc1-c1cn[nH]c1 (stereo partly drawn) [Example 47, 3-[(2R)-4-hydroxy-1-[3-methoxy-4-(1H-pyrazol-4-yl)benzoyl]pyrrolidin-2-yl]-N-(2-hydroxy-2-methylpropyl)benzamide]
- IC50: 7.29 nM

— patent US10112939B2, “Tied-back benzamide derivatives as potent rock inhibitors” (Bristol-Myers Squibb Company, priority 2014, dated 2018)
